Test system: panel of breast cancer cell lines
Assay: Compound A with targeted agents and chemotherapies, 72-hour in vitro proliferation assays
Assay type: cell-based
Conditions: 72-hour proliferation
[1] = AU565 cell line, compound A × partner
[2] = BT-20 cell line, compound A × partner
[3] = BT-474 cell line, compound A × partner
[4] = BT-549 cell line, compound A × partner
[5] = CAL-51 cell line, compound A × partner
[6] = CAL-85-1 cell line, compound A × partner
[7] = CAL-120 cell line, compound A × partner
[8] = CAL-148 cell line, compound A × partner
[9] = CAMA-1 cell line, compound A × partner
[10] = DU-4475 cell line, compound A × partner
[11] = EVSA-T cell line, compound A × partner
[12] = MCF7 cells, Compound A × partner agent
[13] = MDA-MB-175-VII cells, Compound A × partner agent
[14] = MDA-MB-231 cells, Compound A × partner agent
[15] = MDA-MB-361 cells, Compound A × partner agent
[16] = MDA-MB-436 cells, Compound A × partner agent
[17] = MDA-MB-453 cells, Compound A × partner agent
[18] = MDA-MB-468 cells, Compound A × partner agent
[19] = SK-BR-3 cells, Compound A × partner agent
[20] = SUM159PT cells, combination of compound A with the named agent
[21] = T47D cells, combination of compound A with the named agent
[22] = ZR-75-1 cells, combination of compound A with the named agent
[23] = ZR-75-30 cells, combination of compound A with the named agent

## C[C@]12CC[C@@H]3c4ccc(O)cc4C[C@@H](CCCCCCCCC[S+]([O-])CCCC(F)(F)C(F)(F)F)[C@H]3[C@@H]1CC[C@@H]2O (stereo partly shown) [Fulvestrant]
[1]
  Bliss Volume: 6.82
  HSA volume: 2.40
  Loewe Volume: 4.57
  Synergy Score: 3.43
[2]
  Bliss Volume: 3.55
  HSA volume: 3.62
  Loewe Volume: 3.44
  Synergy Score: 8.19
[3]
  Bliss Volume: 2.68
  HSA volume: 1.47
  Loewe Volume: 1.42
  Synergy Score: 6.48
[4]
  Bliss Volume: 3.56
  HSA volume: 7.74
  Loewe Volume: 7.73
  Synergy Score: 6.08
[5]
  Bliss Volume: 0.71
  HSA volume: −1.89
  Loewe Volume: 0.82
  Synergy Score: 0.47
[6]
  Bliss Volume: −4.57
  HSA volume: −0.20
  Loewe Volume: −0.68
  Synergy Score: 2.63
[7]
  Bliss Volume: −4.96
  HSA volume: −4.48
  Loewe Volume: −4.09
  Synergy Score: 0.28
[8]
  Bliss Volume: −1.80
  HSA volume: −2.13
  Loewe Volume: −0.78
  Synergy Score: 4.58
[9]
  Bliss Volume: 4.38
  HSA volume: −0.63
  Loewe Volume: −0.83
  Synergy Score: 2.09
[10]
  Bliss Volume: 4.93
  HSA volume: 0.13
  Loewe Volume: 4.51
  Synergy Score: 2.58
[11]
  Bliss Volume: 6.75
  HSA volume: 1.08
  Loewe Volume: 1.59
  Synergy Score: 3.72
HCC38, compound A × partner
  Bliss Volume: −3.19
  HSA volume: −1.37
  Loewe Volume: −1.82
  Synergy Score: 2.63
HCC70, compound A × partner
  Bliss Volume: 10.34
  HSA volume: 9.70
  Loewe Volume: 10.67
  Synergy Score: 17.18
HCC1143, compound A × partner
  Bliss Volume: 0.82
  HSA volume: −4.16
  Loewe Volume: 0.02
  Synergy Score: 2.79
HCC1569, compound A × partner
  Bliss Volume: 3.84
  HSA volume: 4.70
  Loewe Volume: 5.59
  Synergy Score: 5.92
HCC1806, compound A × partner
  Bliss Volume: −0.20
  HSA volume: −0.86
  Loewe Volume: 1.90
  Synergy Score: 2.60
HCC1937, compound A × partner
  Bliss Volume: 2.31
  HSA volume: −0.65
  Loewe Volume: 2.38
  Synergy Score: 2.38
HCC1954, compound A × partner
  Bliss Volume: 11.35
  HSA volume: 12.18
  Loewe Volume: 11.84
  Synergy Score: 16.73
HCC2218, compound A × partner
  Bliss Volume: 1.16
  HSA volume: 1.89
  Loewe Volume: −1.02
  Synergy Score: 3.85
HDQ-P1, compound A × partner
  Bliss Volume: −5.92
  HSA volume: −6.15
  Loewe Volume: −5.56
  Synergy Score: 0.42
HMC-1-8, compound A × partner
  Bliss Volume: 10.58
  HSA volume: 7.21
  Loewe Volume: 7.81
  Synergy Score: 13.30
JIMT-1, compound A × partner
  Bliss Volume: 5.80
  HSA volume: 0.54
  Loewe Volume: 4.52
  Synergy Score: 1.26
KPL-1, compound A × partner
  Bliss Volume: 0.30
  HSA volume: 1.12
  Loewe Volume: 1.04
  Synergy Score: 2.75
[12]
  Bliss Volume: 11.46
  HSA volume: 11.54
  Loewe Volume: 11.41
[13]
  Bliss Volume: 11.56
  HSA volume: 1.65
  Loewe Volume: 10.58
  Synergy Score: 7.62
[14]
  Bliss Volume: 1.26
  HSA volume: −0.76
  Loewe Volume: 1.50
  Synergy Score: 1.17
[15]
  Bliss Volume: −3.29
  HSA volume: −1.23
  Loewe Volume: −0.47
  Synergy Score: 3.34
[16]
  Bliss Volume: 1.52
  HSA volume: 2.87
  Loewe Volume: 2.94
  Synergy Score: 3.30
[17]
  Bliss Volume: −0.77
  HSA volume: −3.96
  Loewe Volume: −1.85
  Synergy Score: 4.79
[18]
  Bliss Volume: 6.94
  HSA volume: 6.17
  Loewe Volume: 7.22
[19]
  Bliss Volume: −2.14
  HSA volume: −3.78
  Loewe Volume: −2.67
  Synergy Score: 2.05
[20]
  Bliss Volume: 2.51
  HSA volume: 0.14
  Loewe Volume: 2.16
  Synergy Score: 1.23
[21]
  Bliss Volume: 0.17
  HSA volume: 2.12
  Loewe Volume: 3.30
  Synergy Score: 4.16
[22]
  Bliss Volume: 5.80
  HSA volume: 4.00
  Loewe Volume: 6.17
  Synergy Score: 4.22
[23]
  Bliss Volume: 1.91
  HSA volume: 1.18
  Loewe Volume: 1.80
  Synergy Score: 4.50

## CN(C)C(=O)c1cc2cnc(Nc3ccc(N4CCNCC4)cn3)nc2n1C1CCCC1 [LEE011]
[1]
  Best CI: 1.01
  Bliss Volume: −1.41
  HSA volume: −6.50
  Loewe Volume: −4.57
  Synergy Score: 1.58
[2]
  Best CI: 0.78
  Bliss Volume: −2.26
  HSA volume: −1.79
  Loewe Volume: −2.17
  Synergy Score: 2.30
[5]
  Best CI: 0.77
  Bliss Volume: −1.68
  HSA volume: −1.56
  Loewe Volume: −1.27
  Synergy Score: 0.34
[6]
  Best CI: 0.64
  Bliss Volume: −5.58
  HSA volume: −9.15
  Loewe Volume: −7.95
  Synergy Score: 0.23
[7]
  Best CI: 0.62
  Bliss Volume: −1.14
  HSA volume: −5.68
  Loewe Volume: −5.28
  Synergy Score: 0.15
[8]
  Best CI: 0.86
  Bliss Volume: −4.27
  HSA volume: −5.99
  Loewe Volume: −4.10
  Synergy Score: 0.81
[9]
  Best CI: 0.73
  Bliss Volume: −3.85
  Loewe Volume: −6.51
  Synergy Score: 1.09
[10]
  Best CI: 0.47
  Bliss Volume: 1.64
  HSA volume: 0.20
  Loewe Volume: 1.04
  Synergy Score: 0.98
[11]
  Best CI: 0.63
  Bliss Volume: −0.43
  HSA volume: −2.18
  Synergy Score: 0.34
HCC38, compound A × partner
  Best CI: 0.44
  Bliss Volume: −4.85
  HSA volume: −8.61
  Loewe Volume: −9.77
  Synergy Score: 1.12
HCC70, compound A × partner
  Best CI: 0.93
  Bliss Volume: −0.15
  HSA volume: 0.16
  Loewe Volume: 0.49
  Synergy Score: 6.12
HCC1143, compound A × partner
  Bliss Volume: −3.25
  HSA volume: −7.75
  Loewe Volume: −9.95
  Synergy Score: 1.30
HCC1569, compound A × partner
  Best CI: 0.47
  Bliss Volume: 5.70
  HSA volume: 1.89
  Loewe Volume: 5.08
  Synergy Score: 3.87
HCC1806, compound A × partner
  Best CI: 0.56
  Bliss Volume: −3.98
  HSA volume: −8.72
  Loewe Volume: −4.05
  Synergy Score: 0.65
HCC1937, compound A × partner
  Best CI: 0.74
  Bliss Volume: 2.31
  HSA volume: −2.66
  Loewe Volume: 1.04
  Synergy Score: 2.13
HCC1954, compound A × partner
  Best CI: 0.72
  Bliss Volume: −0.75
  Loewe Volume: −1.17
  Synergy Score: 4.48
HCC2218, compound A × partner
  Best CI: 0.73
  Bliss Volume: −5.40
  HSA volume: −4.99
  Loewe Volume: −5.90
  Synergy Score: 1.69
HDQ-P1, compound A × partner
  Best CI: 0.04
  Bliss Volume: −2.80
  HSA volume: −6.22
  Loewe Volume: −9.02
  Synergy Score: 0.15
HMC-1-8, compound A × partner
  Best CI: 0.81
  Bliss Volume: 9.82
  HSA volume: 5.13
  Loewe Volume: 5.78
  Synergy Score: 9.01
JIMT-1, compound A × partner
  Best CI: 0.00
  Bliss Volume: 0.29
  HSA volume: −2.46
  Loewe Volume: −4.06
  Synergy Score: 0.28
KPL-1, compound A × partner
  Best CI: 0.65
  Bliss Volume: 0.36
  HSA volume: −0.31
  Synergy Score: 1.43

Reference: US11931424B2, “Combination MCL-1 inhibitors with anti-body drug conjugates” (Gilead Sciences, Inc., priority 2021, dated 2024)
